Here are results for 24 molecules from patent US9458153B2, “Dihydroquinolizinones for the treatment and prophylaxis of hepatitis B virus infection” (Hoffmann-La Roche Inc., priority 2014, dated 2016).

Structures can show the parent of a compound that is named as a salt.

In the first assay the test system is HBsAg. The assay can be described thus: HBsAg assay (chemiluminescence immunoassay of secreted HBsAg in HepG2.2.15 culture supernatant). Type of assay: cell-based, HBV. Particulars: HBsAg secretion reduced by 50% vs no drug control; HepG2.2.15 cells; CLIA kit. The procedure, abridged: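 IC50 came from dose-response curves of HBsAg in culture supernatant, measured semi-quantitatively by chemiluminescent immunoassay. The HBV-producing HepG2.2.15 line was dosed in duplicate with a three-fold compound dilution series, with DMSO at 1% final and DMSO alone as the no-drug control.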
Molecule `COCCOc1cc2c(cc1Cl)-c1cc(=O)c(C(=O)O)cn1C(C(C)C)C2` (single isomer, unassigned; (-)) [Example 109, (−)-10-chloro-6-isopropyl-9-(2-methoxyethoxy)-2-oxo-6,7-dihydrobenzo[a]quinolizine-3-carboxylic acid] came in with a 50% inhibitory concentration (IC50) of 61 nM.

As to `COc1cc2c(cc1OC)-c1cc(=O)c(C(=O)O)cn1C(C(C)C)C2` (single isomer, unassigned; (-)) [Example 100, (−)-6-isopropyl-9,10-dimethoxy-2-oxo-6,7-dihydrobenzo[a]quinolizine-3-carboxylic acid], the half-inhibitory concentration (IC50) was determined as 5400 nM.

The molecule `CCCOc1cc2c(cc1OC)-c1cc(=O)c(C(=O)O)cn1C(CC)C2` (single isomer, unassigned; (-)) [Example 80, (−)-6-ethyl-10-methoxy-2-oxo-9-propoxyl-6,7-dihydrobenzo[a]quinolizine-3-carboxylic acid] yielded an IC50 of 190 nM.

As to `COCCCOc1cc2c(cc1OC)-c1cc(=O)c(C(=O)O)cn1C(CC(F)(F)F)C2` (stereo not drawn) [Example 199, 10-methoxy-9-(3-methoxypropoxy)-2-oxo-6-(2,2,2-trifluoroethyl)-6,7-dihydrobenzo[a]quinolizine-3-carboxylic acid], half-maximal inhibition (IC50) was put at 33 nM. This IC50 lies about 5.8-fold lower than the previous one.

In turn, `CCC1Cc2cc(OCC(F)(F)F)c(OC)cc2-c2cc(=O)c(C(=O)O)cn21` (single isomer, unassigned; (-)) [Example 12, (−)-6-ethyl-10-methoxy-2-oxo-9-(2,2,2-trifluoroethoxy)-6,7-dihydrobenzo[a]quinolizine-3-carboxylic acid] registered an IC50 of 5200 nM.

Turning to `COCCCOc1cc2c(cc1Cl)-c1cc(=O)c(C(=O)O)cn1C(C(C)(C)C)C2` (single isomer, unassigned; (-)) [Example 204, (−)-6-tert-butyl-10-chloro-9-(3-methoxypropoxy)-2-oxo-6,7-dihydrobenzo[a]quinolizine-3-carboxylic acid], the IC50 was determined as 140 nM.

Take `CCOc1cc2c(cc1OC)-c1cc(=O)c(C(=O)O)cn1C(CC)C2` (single isomer, unassigned; (-)) [Example 38, (−)-9-ethoxy-6-ethyl-10-methoxy-2-oxo-6,7-dihydrobenzo[a]quinolizine-3-carboxylic acid]: the 50% inhibitory concentration (IC50) stood at 1810 nM.

Molecule `CCC1Cc2cc(OCC(F)F)c(OC)cc2-c2cc(=O)c(C(=O)O)cn21` (single isomer, unassigned; (-)) [Example 47, (−)-9-(2,2-difluoroethoxy)-6-ethyl-10-methoxy-2-oxo-6,7-dihydrobenzo[a]quinolizine-3-carboxylic acid] registered an IC50 of 3400 nM.

Molecule `CCC1Cc2cc(OCc3ccccc3)c(OC)cc2-c2cc(=O)c(C(=O)O)cn21` (single isomer, unassigned; (-)) [Example 10, (−)-9-benzyloxy-6-ethyl-10-methoxy-2-oxo-6,7-dihydrobenzo[a]quinolizine-3-carboxylic acid] displayed an IC50 of 1240 nM.

`CCC1Cc2cc(OCC(C)C)c(OC)cc2-c2cc(=O)c(C(=O)O)cn21` (single isomer, unassigned; (-)) [Example 35, (−)-6-ethyl-9-isobutoxy-10-methoxy-2-oxo-6,7-dihydrobenzo[a]quinolizine-3-carboxylic acid]: the IC50 came to 1390 nM.

Still in this assay, the particulars now being: HBsAg secretion reduced by 50% vs no drug control; HepG2.2.15 cells; CLIA kit; hydrochloride.
In the case of `COc1cc2c(cc1OCCCCCCN)CC(C(C)(C)C)n1cc(C(=O)O)c(=O)cc1-2` (single isomer, unassigned; (+)) [Example 164, (+)-9-(6-aminohexoxy)-6-tert-butyl-10-methoxy-2-oxo-6,7-dihydrobenzo[a]quinolizine-3-carboxylic acid hydrochloride], half-maximal inhibition (IC50) was put at 3 nM.

Still in this assay, the particulars now being: Hepatitis B virus, HepG2.2.15, HBsAg secretion reduced by 50% vs no drug control; HepG2.2.15 cells; CLIA kit.
For `CCC(F)(F)Oc1cc2c(cc1OC)-c1cc(=O)c(C(=O)O)cn1C(C(C)(C)C)C2` (stereo not drawn) [Example 181, 6-tert-butyl-9-(1,1-difluoropropoxy)-10-methoxy-2-oxo-6,7-dihydrobenzo[a]quinolizine-3-carboxylic acid], the IC50 was 12 nM. In other words, the double-digit nanomolar range.

`COc1cc2c(cc1OCCC(F)F)CC(C(C)(C)C)n1cc(C(=O)O)c(=O)cc1-2` (stereo not drawn) [Example 180, 6-tert-butyl-9-(3,3-difluoropropoxy)-10-methoxy-2-oxo-6,7-dihydrobenzo[a]quinolizine-3-carboxylic acid] showed a half-inhibitory concentration (IC50) of 4 nM. Compared with the last molecule, the IC50 is about 3-fold lower.

Molecule `CCC1Cc2cc(OCCc3ccccc3)c(OC)cc2-c2cc(=O)c(C(=O)O)cn21` (stereo not drawn) [Example 14, 6-ethyl-10-methoxy-2-oxo-9-(2-phenylethoxy)-6,7-dihydrobenzo[a]quinolizine-3-carboxylic acid] registered an IC50 of 14 nM.

`COc1cc2c(cc1OCCCCCNC(C)=O)CC(C(C)(C)C)n1cc(C(=O)O)c(=O)cc1-2` (stereo not drawn) [Example 175, 9-(5-acetamidopentoxy)-6-tert-butyl-10-methoxy-2-oxo-6,7-dihydrobenzo[a]quinolizine-3-carboxylic acid]: the IC50 stood at 33 nM. Against the preceding molecule, the IC50 is about 2.4-fold higher.

For `CCOc1cc2c(cc1O)-c1cc(=O)c(C(=O)O)cn1C(C)C2` (stereo not drawn) [Example 75, 9-ethoxy-6-methyl-10-hydroxy-2-oxo-6,7-dihydrobenzo[a]quinolizine-3-carboxylic acid], half-maximal inhibition (IC50) required 1110 nM.

With `CCCOc1cc2c(cc1OCCC)-c1cc(=O)c(C(=O)O)cn1CC2` [Example 77, 2-oxo-9,10-dipropoxy-6,7-dihydrobenzo[a]quinolizine-3-carboxylic acid], it took 830 nM to reach half-maximal inhibition (IC50).

In turn, `COc1cc2c(cc1OCCCC(=O)O)CC(C(C)(C)C)n1cc(C(=O)O)c(=O)cc1-2` (stereo not drawn) [Example 218, 6-tert-butyl-9-(3-carboxypropoxy)-10-methoxy-2-oxo-6,7-dihydrobenzo[a]quinolizine-3-carboxylic acid] displayed an IC50 of 145 nM.

In turn, `C[C@@H]1Cc2cc(Br)ccc2-c2cc(=O)c(C(=O)O)cn21` [Example 61, (+)-9-bromo-6-methyl-2-oxo-6,7-dihydrobenzo[a]quinolizine-3-carboxylic acid] yielded an IC50 of 6020 nM.

For `CCC1Cc2cc(OCCNS(C)(=O)=O)c(OC)cc2-c2cc(=O)c(C(=O)O)cn21` (stereo not drawn) [Example 56, 6-ethyl-9-[2-(methanesulfonamido)ethoxy]-10-methoxy-2-oxo-6,7-dihydrobenzo[a]quinolizine-3-carboxylic acid], the IC50 was 3300 nM. This IC50 lies about 1.8-fold lower than the previous one.

For `C=CC(F)(F)Oc1cc2c(cc1OC)-c1cc(=O)c(C(=O)O)cn1C(C(C)(C)C)C2` (stereo not drawn) [Example 182, 6-tert-butyl-9-(1,1-difluoroallyloxy)-10-methoxy-2-oxo-6,7-dihydrobenzo[a]quinolizine-3-carboxylic acid], the 50% inhibitory concentration (IC50) was 16 nM.

`CCOc1ccc(C#N)c2c1-c1cc(=O)c(C(=O)O)cn1C(CC)C2` (stereo not drawn) [Example 95, 8-cyano-11-ethoxy-6-ethyl-2-oxo-6,7-dihydrobenzo[a]quinolizine-3-carboxylic acid]: inhibition was half-maximal at 7830 nM (IC50).

Consider `CC[C@@H]1Cc2cc(OCCN3CCCC3=O)c(OC)cc2-c2cc(=O)c(C(=O)O)cn21` [Example 55, (+)-6-ethyl-10-methoxy-2-oxo-9-[2-(2-oxopyrrolidin-1-yl)ethoxy]-6,7-dihydrobenzo[a]quinolizine-3-carboxylic acid], for which it took 720 nM to reach half-maximal inhibition (IC50). This IC50 is about 11-fold lower than that of the molecule before.

As to `COc1cc2c(cc1OC)C(C)Cn1cc(C(=O)O)c(=O)cc1-2` (stereo not drawn) [Example 69, 9,10-dimethoxy-7-methyl-2-oxo-6,7-dihydrobenzo[a]quinolizine-3-carboxylic acid], half-maximal inhibition (IC50) was put at 1300 nM.
